The target in this assay is T1, H3 receptors (Cavia porcellus, UniProt Q9JI35).
T1 construct: The source of the H3 receptors in this experiment was guinea pig brain; from tissue; host or cells: guinea pig brain membranes
As to the kind of experiment: H3-Receptor Binding Assay (guinea pig brain membranes). The following applies: 3 nM [3H]R-α-methyl histamine or 3 nM [3H]Nα-methyl histamine, 30° C., 30 min. As to the method: The source of the H3 receptors in this experiment was guinea pig brain. The animals weighed 400–600 g. The brain tissue was homogenized with a solution of 50 mM Tris, pH 7.5. The final concentration of tissue in the homogenization buffer was 10% w/v. […] The resulting supernatants were then centrifuged at 50,000×g for 20 min. in order to sediment the membranes, which were next washed three times in homogenization buffer (50,000×g for 20 min. each). The membranes were frozen and stored at −70° C. until needed.
All compounds to be tested were dissolved in DMSO and then diluted into the binding buffer (50 mM Tris, pH 7.5) such that the final concentration was 2 μg/ml with 0.1% DMSO. Membranes were then added (400 μg of protein) to the reaction tubes. The reaction was started by the addition of 3 nM [^3H]R-α-methyl histamine (8.8 Ci/mmol) or 3 nM [^3H]N^α-methyl histamine (80 Ci/mmol) and continued under incubation at 30° C. for 30 min. Bound ligand was separated from unbound ligand by filtration, and the amount of radioactive ligand bound to the membranes was quantitated by liquid scintillation spectrometry.

Structures are written as SMILES.

T1 sequence (Q9JI35 whole entry): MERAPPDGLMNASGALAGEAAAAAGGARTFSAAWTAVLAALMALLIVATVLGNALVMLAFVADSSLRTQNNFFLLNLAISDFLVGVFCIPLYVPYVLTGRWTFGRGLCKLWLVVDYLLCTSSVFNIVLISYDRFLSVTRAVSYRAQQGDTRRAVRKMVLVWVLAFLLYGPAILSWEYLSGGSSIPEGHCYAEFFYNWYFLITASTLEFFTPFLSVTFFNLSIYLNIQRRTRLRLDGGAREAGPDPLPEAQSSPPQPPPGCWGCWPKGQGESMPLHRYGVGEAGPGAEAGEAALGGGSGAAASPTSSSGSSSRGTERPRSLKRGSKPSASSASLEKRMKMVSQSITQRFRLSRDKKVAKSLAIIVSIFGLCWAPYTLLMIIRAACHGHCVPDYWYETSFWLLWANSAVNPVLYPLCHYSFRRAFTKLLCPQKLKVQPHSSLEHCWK

Turning to `O=C(C1CCN(Cc2ccncc2)CC1)N1CCC(n2c(=O)n(CCn3cccc3)c3ccccc32)CC1` [Example 1AL], the affinity corresponds to a Ki of 0.2 nM.

For the origin of these results see US7220735B2, “Benzimidazolone histamine H3 antagonists” (Schering Corporation, priority 2002, dated 2007).
